Test results from PubChem BioAssay AID2060900 (Molecular Pharmacology Branch, DTP, NCI, 2025).

Tested on: 521955-158-R2-J5-PDC complex spheroids, viability
Test: Anticancer human tumor 521955-158-R2-J5-PDC patient-derived pancreatic carcinoma cell line growth inhibition [RAS]
Conditions: for IC50: curve of first compound; for viability, T/C: stronger effect = lower value
Summary of the method: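 Agents were tested in combination matrices in half-log decrements from a top concentration at or near clinical Cmax (10 microM if undetermined). Targets were multi-cell spheroids of tumour lines plus HUVEC and MSC stromal cells.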

[1] = second compound 0.00316 µM, first compound 0.0316 µM
[2] = second compound 0.00316 µM, first compound 0.1 µM
[3] = second compound 0.00316 µM, first compound 0.316 µM
[4] = second compound 0.00316 µM, first compound 1 µM
[5] = second compound 0.00316 µM, first compound 3.16 µM
[6] = second compound 0.00316 µM, first compound 10 µM
[7] = second compound 0.01 µM, first compound 0.0316 µM
[8] = second compound 0.01 µM, first compound 0.1 µM
[9] = second compound 0.01 µM, first compound 0.316 µM
[10] = second compound 0.01 µM, first compound 1 µM
[11] = second compound 0.01 µM, first compound 3.16 µM
[12] = second compound 0.01 µM, first compound 10 µM
[13] = second compound 0.0316 µM, first compound 0.0316 µM
[14] = second compound 0.0316 µM, first compound 0.1 µM
[15] = second compound 0.0316 µM, first compound 0.316 µM
[16] = second compound 0.0316 µM, first compound 1 µM
[17] = second compound 0.0316 µM, first compound 3.16 µM
[18] = second compound 0.0316 µM, first compound 10 µM
[19] = second compound 0.1 µM, first compound 0.0316 µM
[20] = second compound 0.1 µM, first compound 0.1 µM
[21] = second compound 0.1 µM, first compound 0.316 µM
[22] = second compound 0.1 µM, first compound 1 µM
[23] = second compound 0.1 µM, first compound 3.16 µM
[24] = second compound 0.1 µM, first compound 10 µM
[25] = second compound 0.316 µM, first compound 0.0316 µM
[26] = second compound 0.316 µM, first compound 0.1 µM
[27] = second compound 0.316 µM, first compound 0.316 µM
[28] = second compound 0.316 µM, first compound 1 µM
[29] = second compound 0.316 µM, first compound 3.16 µM
[30] = second compound 0.316 µM, first compound 10 µM
[31] = second compound 1 µM, first compound 0.0316 µM
[32] = second compound 1 µM, first compound 0.1 µM
[33] = second compound 1 µM, first compound 0.316 µM
[34] = second compound 1 µM, first compound 1 µM
[35] = second compound 1 µM, first compound 3.16 µM
[36] = second compound 1 µM, first compound 10 µM
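Note: compound exposure lasted seven days before the viability read.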
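Throughout, for viability, T/C: spheroids also contain HUVEC endothelial cells and mesenchymal stem cells as stroma.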

## CC1(O)CCCC1n1c(=O)c(C(F)F)cc2cnc(NC3CCN(S(C)(=O)=O)CC3)nc21 (stereo unspecified) + C=CC(=O)N1CCN(c2nc(OCC3CCCN3C)nc3c(F)c(-c4nc(N)cc(C)c4C(F)(F)F)c(Cl)cc23)C(C)C1
Second compound 0.00316 µM
  IC50: 5890 nM
Second compound 0.01 µM
  IC50: 6180 nM
Second compound 0.0316 µM
  IC50: 6070 nM
Second compound 0.1 µM
  IC50: 6240 nM
Second compound 0.316 µM
  IC50: 6020 nM
Second compound 1 µM
  IC50: 6060 nM
[1]
  viability, T/C: 93.1%
[2]
  viability, T/C: 83%
[3]
  viability, T/C: 81%
[4]
  viability, T/C: 80.9%
[5]
  viability, T/C: 121%
[6]
  viability, T/C: 14.4%
[7]
  viability, T/C: 85.9%
[8]
  viability, T/C: 98%
[9]
  viability, T/C: 78.6%
[10]
  viability, T/C: 102%
[11]
  viability, T/C: 112%
[12]
  viability, T/C: 17.2%
[13]
  viability, T/C: 87.7%
[14]
  viability, T/C: 121%
[15]
  viability, T/C: 80.2%
[16]
  viability, T/C: 96.4%
[17]
  viability, T/C: 108%
[18]
  viability, T/C: 12.7%
[19]
  viability, T/C: 135%
[20]
  viability, T/C: 85.2%
[21]
  viability, T/C: 75.2%
[22]
  viability, T/C: 109%
[23]
  viability, T/C: 111%
[24]
  viability, T/C: 13%
[25]
  viability, T/C: 123%
[26]
  viability, T/C: 79.3%
[27]
  viability, T/C: 78.3%
[28]
  viability, T/C: 89.8%
[29]
  viability, T/C: 116%
[30]
  viability, T/C: 12.7%
[31]
  viability, T/C: 127%
[32]
  viability, T/C: 89.1%
[33]
  viability, T/C: 69.5%
[34]
  viability, T/C: 84%
[35]
  viability, T/C: 119%
[36]
  viability, T/C: 13%

## CCC(CC)c1cc(NC2CCC(N)C2)n2nccc2n1 (stereo unspecified) + C=CC(=O)N1CCN(c2nc(OCC3CCCN3C)nc3c(F)c(-c4nc(N)cc(C)c4C(F)(F)F)c(Cl)cc23)C(C)C1
Second compound 0.00316 µM
  IC50: 1950 nM
Second compound 0.01 µM
  IC50: 2100 nM
Second compound 0.0316 µM
  IC50: 2110 nM
Second compound 0.1 µM
  IC50: 2090 nM
Second compound 0.316 µM
  IC50: 2140 nM
Second compound 1 µM
  IC50: 2010 nM
[1]
  viability, T/C: 95.8%
[2]
  viability, T/C: 118%
[3]
  viability, T/C: 122%
[4]
  viability, T/C: 107%
[5]
  viability, T/C: 7.09%
[6]
  viability, T/C: 10.1%
[7]
  viability, T/C: 104%
[8]
  viability, T/C: 127%
[9]
  viability, T/C: 126%
[10]
  viability, T/C: 128%
[11]
  viability, T/C: 8.44%
[12]
  viability, T/C: 12.1%
[13]
  viability, T/C: 99.1%
[14]
  viability, T/C: 127%
[15]
  viability, T/C: 122%
[16]
  viability, T/C: 152%
[17]
  viability, T/C: 9.15%
[18]
  viability, T/C: 9.78%
[19]
  viability, T/C: 139%
[20]
  viability, T/C: 106%
[21]
  viability, T/C: 142%
[22]
  viability, T/C: 120%
[23]
  viability, T/C: 10.2%
[24]
  viability, T/C: 9.75%
[25]
  viability, T/C: 145%
[26]
  viability, T/C: 105%
[27]
  viability, T/C: 119%
[28]
  viability, T/C: 133%
[29]
  viability, T/C: 11.5%
[30]
  viability, T/C: 9.87%
[31]
  viability, T/C: 102%
[32]
  viability, T/C: 107%
[33]
  viability, T/C: 125%
[34]
  viability, T/C: 110%
[35]
  viability, T/C: 10.1%
[36]
  viability, T/C: 13%

## CCN1CCN(Cc2ccc(Nc3ncc(F)c(-c4cc(F)c5nc(C)n(C(C)C)c5c4)n3)nc2)CC1 + C=CC(=O)N1CCN(c2nc(OCC3CCCN3C)nc3c(F)c(-c4nc(N)cc(C)c4C(F)(F)F)c(Cl)cc23)C(C)C1
Second compound 0.00316 µM
  IC50: > 1000 nM
Second compound 0.01 µM
  IC50: > 1000 nM
Second compound 0.0316 µM
  IC50: > 1000 nM
Second compound 0.1 µM
  IC50: > 1000 nM
Second compound 0.316 µM
  IC50: > 1000 nM
Second compound 1 µM
  IC50: > 1000 nM
Second compound 0.00316 µM, first compound 0.00316 µM
  viability, T/C: 121%
Second compound 0.00316 µM, first compound 0.01 µM
  viability, T/C: 89.3%
[1]
  viability, T/C: 85.3%
[2]
  viability, T/C: 85.2%
[3]
  viability, T/C: 140%
[4]
  viability, T/C: 102%
Second compound 0.01 µM, first compound 0.00316 µM
  viability, T/C: 87.2%
Second compound 0.01 µM, first compound 0.01 µM
  viability, T/C: 126%
[7]
  viability, T/C: 76.5%
[8]
  viability, T/C: 120%
[9]
  viability, T/C: 104%
[10]
  viability, T/C: 108%
Second compound 0.0316 µM, first compound 0.00316 µM
  viability, T/C: 101%
Second compound 0.0316 µM, first compound 0.01 µM
  viability, T/C: 148%
[13]
  viability, T/C: 88.9%
[14]
  viability, T/C: 110%
[15]
  viability, T/C: 93.6%
[16]
  viability, T/C: 98.4%
Second compound 0.1 µM, first compound 0.00316 µM
  viability, T/C: 147%
Second compound 0.1 µM, first compound 0.01 µM
  viability, T/C: 103%
[19]
  viability, T/C: 115%
[20]
  viability, T/C: 110%
[21]
  viability, T/C: 108%
[22]
  viability, T/C: 112%
Second compound 0.316 µM, first compound 0.00316 µM
  viability, T/C: 145%
Second compound 0.316 µM, first compound 0.01 µM
  viability, T/C: 109%
[25]
  viability, T/C: 80.9%
[26]
  viability, T/C: 96.4%
[27]
  viability, T/C: 107%
[28]
  viability, T/C: 97.6%
Second compound 1 µM, first compound 0.00316 µM
  viability, T/C: 120%
Second compound 1 µM, first compound 0.01 µM
  viability, T/C: 92%
[31]
  viability, T/C: 81.8%
[32]
  viability, T/C: 75.6%
[33]
  viability, T/C: 93.5%
[34]
  viability, T/C: 100%
